Laboratory results taken from patent publication US8193203B2, “Bicyclic compounds having activity at the CXCR4 receptor” (Allergan, Inc., priority 2008, dated 2012).

Target: T1, human CXCR4 receptor (Homo sapiens, UniProt P61073)
T1 construct: expressed in transfected cells
Assay: Measurement of intracellular Ca+2 responses (FLIPR), antagonism of the SDF-1α response
Assay type: cell-based
Conditions: for IC50: HEK-Gqi5 cells stably expressing human CXCR4, Fluo-4 FLIPR, antagonism of SDF-1α 1.9 nM (EC65); for CXCR4 (% Inh): percent antagonism of SDF-1α 1.9 nM (EC65) response, HEK-Gqi5 human CXCR4 cells, value in brackets
Protocol: Measurement of Intracellular Ca^+2 Responses for CXCR4 Compounds
HEK-Gqi5 cells stably expressing the human CXCR4 receptor were utilized for these studies. The growth media for the CXCR4 receptor expressing cell line was DMEM high glucose medium supplemented with 10% fetal bovine serum (FBS), 1% antibiotic-antimycotic, 50 ug/ml hygromycin B, and 400 μg/ml geneticin. Ten thousand cells per well were plated into 384-well poly-D-lysine coated plates one day prior to use. On the day of the experiment, the cells were washed twice with Hank's Balanced Salt Solution supplemented with 20 mM hepes (HBSS/hepes buffer). The cells were then dye loaded with 2 uM Fluo-4 diluted in the HBSS/Hepes buffer and incubated at 37° C. for 40 minutes. Extracellular dye was removed by washing the cell plates four times prior to placing the plates in the FLIPR (Fluorometric Imaging Plate Reader, Molecular Devices). Ligands were diluted in HBSS/Hepes buffer and prepared in 384-well microplates. The positive control, stromal-cell derived factor-1 (SDF-1α), was diluted in HBSS/Hepes buffer with 4 mg/ml fatty acid free bovine serum albumin. Two drug additions were made by the FLIPR. The first drug addition was the test drug in concentrations ranging from 2.44 nM to 40,000 nM. After this addition, fluorescent measurements were taken. Any calcium release in response to this drug addition represents agonist activity of the compounds. The second drug addition was SDF-1α at a final concentration of 1.9 nM (EC65). Fluorescence measurements were also taken after this second drug addition and were used to determine the ability of the test compounds to antagonize the SDF-1α response. Results were expressed as EC50 and efficacy values, as well as IC50 and percent antagonism values. As controls, SDF-1α (CXCR4 agonist) and AMD3100 (CXCR4 antagonist) dose-response curves were also determined in each study.

T1 sequence (P61073 whole entry): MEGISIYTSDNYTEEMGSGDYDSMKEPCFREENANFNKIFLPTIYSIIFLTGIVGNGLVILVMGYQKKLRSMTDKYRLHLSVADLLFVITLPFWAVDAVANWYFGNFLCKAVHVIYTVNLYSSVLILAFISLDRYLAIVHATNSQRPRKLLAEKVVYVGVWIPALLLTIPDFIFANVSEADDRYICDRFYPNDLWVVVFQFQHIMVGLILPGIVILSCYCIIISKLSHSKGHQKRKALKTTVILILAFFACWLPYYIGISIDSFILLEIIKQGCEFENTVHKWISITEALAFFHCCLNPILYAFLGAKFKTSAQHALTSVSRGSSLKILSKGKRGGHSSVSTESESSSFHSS

Row | SMILES | IC50 (values given in μM) [µM] | CXCR4 (% Inh) [%] | IC50 (values in nM) [µM]
1 | COc1cc2nc(NCc3nccs3)nc(NC3CCN(Cc4c(OCCN(C)C)cccc4N(C)C)CC3)c2cc1OC [Compound 205, N˜4˜-(1-{2-(Dimethylamino)-6-[2-(dimethylamino)ethoxy]benzyl}piperidin-4-yl)-6,7-dimethoxy-N˜2˜-(1,3-thiazol-2-ylmethyl)quinazoline-2,4-diamine] |  | 100 | 0.032
2 | CCN(CC)CCCNc1nc(NC2CCN(Cc3c(OC)cccc3N(C)C)CC2)c2cc(OC)c(OC)cc2n1 [Compound 42, N2-(3-(Diethylamino)propyl)-N4-(1-(2-(dimethylamino)-6-methoxybenzyl)piperidin-4-yl)-6,7-dimethoxyquinazoline-2,4-diamine] |  | 98 | 0.179
3 | CCN(CC)CCNc1nc(NC2CCN(Cc3ccccc3N(C)C)CC2)c2cc(OC)c(OC)cc2n1 [Compound 32] |  | 90 | 0.343
4 | COc1cc2nc(NCc3ncco3)nc(NC3CCN(Cc4c(OCCN(C)C)cccc4N(C)C)CC3)c2cc1OC [Compound 204, N˜4˜-(1-{2-(Dimethylamino)-6-[2-(dimethylamino)ethoxy]benzyl}piperidin-4-yl)-6,7-dimethoxy-N2(1,3-oxazol-2-ylmethyl)quinazoline-2,4-diamine] |  | 92 | 0.047
5 | COc1cc2nc(NCc3cncn3C)nc(NC3CCN(Cc4c(OCCN(C)C)cccc4N(C)C)CC3)c2cc1OC [Compound 198, N˜4˜-(1-{2-(Dimethylamino)-6-[2-(dimethylamino)ethoxy]benzyl}piperidin-4-yl)-6,7-dimethoxy-N˜2˜-[(1-methyl-1H-imidazol-5-yl)methyl]quinazoline-2,4-diamine] |  | 98 | 0.036

Other lines, results leading:

Row | IC50 (values given in μM) [µM] | CXCR4 (% Inh) [%] | IC50 (values in nM) [µM] | SMILES
6 | 1.5 | 93 |  | COc1cccc(N(C)C)c1CN1CCC(Nc2nc(N(CCO)C(C)=O)nc3ccccc23)CC1 [Compound 90, N-(4-(1-(2-(Dimethylamino)-6-methoxybenzyl)piperidin-4-ylamino)quinazolin-2-yl)-N-(2-hydroxyethyl)acetamide]
7 | 1.9 | 88 |  | CCN(CC)CCCCCNc1nc(NC2CCN(Cc3c(OC)cccc3N(C)C)CC2)c2ccccc2n1 [Compound 67, N2-(5-(Diethylamino)pentyl)-N4-(1-(2-(dimethylamino)-6-methoxybenzyl)piperidin-4-yl)quinazoline-2,4-diamine]
8 |  | 97 | 0.268 | COc1cccc(N(C)C)c1CN1CCC(Nc2nc(NCCN)nc3ccccc23)CC1 [Compound 125, N2-(2-Aminoethyl)-N4-(1-(2-(dimethylamino)-6-methoxybenzyl)piperidin-4-yl)quinazoline-2,4-diamine]
9 |  | 98 | 0.118 | COc1cccc(N(C)C)c1CN1CCC(Nc2nc(NCCN(C)C)nc3ccccc23)CC1 [Compound 153, N˜2˜-[2-(Dimethylamino)ethyl]-N˜4˜-{1-[2-(dimethylamino)-6-methoxybenzyl]piperidin-4-yl}quinazoline-2,4-diamine]
10 | 3.5 | 86 |  | COc1cccc(N(C)C)c1CN1CCC(Nc2nc(N3CCN(C(C)=O)CC3)nc3ccccc23)CC1 [Compound 86, 1-(4-(4-(1-(2-(Dimethylamino)-6-methoxybenzyl)piperidin-4-ylamino)quinazolin-2-yl)piperazin-1-yl)ethanone]
11 |  | 98 | 0.771 | CCNCCNc1nc(NC2CCN(Cc3c(OC)cccc3N(C)C)CC2)c2ccccc2n1 [Compound 105, N4-(1-(2-(Dimethylamino)-6-methoxybenzyl)piperidin-4-yl)-N2-(2-(ethylamino)ethyl)quinazoline-2,4-diamine]
12 | 1.4 | 100 |  | CCN(CC)CCCNc1nc(NC2CCN(Cc3cccc(C)c3N(C)C)CC2)c2ccccc2n1 [Compound 152, N˜2˜-[3-(Diethylamino)propyl]-N˜4˜-{1-[2-(dimethylamino)-3-methylbenzyl]piperidin-4-yl}quinazoline-2,4-diamine]
